Experimental data: patent publication US8959984B2, “Proteome-wide quantification of small molecule binding to cellular target proteins” (priority 2007, dated 2015)

Columns and labels:
Experiment in all cases: binding to VI16742 beads (HeLa lysate, SILAC MS)
LOK (STK10, IPI00304742) = target: T1, LOK (STK10, IPI00304742) (Homo sapiens, UniProt O94804)
T1 construct: endogenous in cells; host or cells: HeLa S3
Summary of the method: (§1)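 Binders are those proteins retained specifically by an immobilised pyrido[2,3-d]pyrimidine compound, a kinase inhibitor of wide selectivity.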

[1] = target: T2, MRCKb (CDC42BPB, IPI00477763) (Homo sapiens, UniProt Q9Y5S2)
T2 construct: endogenous in cells; host or cells: HeLa S3
T2 sequence (Q9Y5S2 whole entry): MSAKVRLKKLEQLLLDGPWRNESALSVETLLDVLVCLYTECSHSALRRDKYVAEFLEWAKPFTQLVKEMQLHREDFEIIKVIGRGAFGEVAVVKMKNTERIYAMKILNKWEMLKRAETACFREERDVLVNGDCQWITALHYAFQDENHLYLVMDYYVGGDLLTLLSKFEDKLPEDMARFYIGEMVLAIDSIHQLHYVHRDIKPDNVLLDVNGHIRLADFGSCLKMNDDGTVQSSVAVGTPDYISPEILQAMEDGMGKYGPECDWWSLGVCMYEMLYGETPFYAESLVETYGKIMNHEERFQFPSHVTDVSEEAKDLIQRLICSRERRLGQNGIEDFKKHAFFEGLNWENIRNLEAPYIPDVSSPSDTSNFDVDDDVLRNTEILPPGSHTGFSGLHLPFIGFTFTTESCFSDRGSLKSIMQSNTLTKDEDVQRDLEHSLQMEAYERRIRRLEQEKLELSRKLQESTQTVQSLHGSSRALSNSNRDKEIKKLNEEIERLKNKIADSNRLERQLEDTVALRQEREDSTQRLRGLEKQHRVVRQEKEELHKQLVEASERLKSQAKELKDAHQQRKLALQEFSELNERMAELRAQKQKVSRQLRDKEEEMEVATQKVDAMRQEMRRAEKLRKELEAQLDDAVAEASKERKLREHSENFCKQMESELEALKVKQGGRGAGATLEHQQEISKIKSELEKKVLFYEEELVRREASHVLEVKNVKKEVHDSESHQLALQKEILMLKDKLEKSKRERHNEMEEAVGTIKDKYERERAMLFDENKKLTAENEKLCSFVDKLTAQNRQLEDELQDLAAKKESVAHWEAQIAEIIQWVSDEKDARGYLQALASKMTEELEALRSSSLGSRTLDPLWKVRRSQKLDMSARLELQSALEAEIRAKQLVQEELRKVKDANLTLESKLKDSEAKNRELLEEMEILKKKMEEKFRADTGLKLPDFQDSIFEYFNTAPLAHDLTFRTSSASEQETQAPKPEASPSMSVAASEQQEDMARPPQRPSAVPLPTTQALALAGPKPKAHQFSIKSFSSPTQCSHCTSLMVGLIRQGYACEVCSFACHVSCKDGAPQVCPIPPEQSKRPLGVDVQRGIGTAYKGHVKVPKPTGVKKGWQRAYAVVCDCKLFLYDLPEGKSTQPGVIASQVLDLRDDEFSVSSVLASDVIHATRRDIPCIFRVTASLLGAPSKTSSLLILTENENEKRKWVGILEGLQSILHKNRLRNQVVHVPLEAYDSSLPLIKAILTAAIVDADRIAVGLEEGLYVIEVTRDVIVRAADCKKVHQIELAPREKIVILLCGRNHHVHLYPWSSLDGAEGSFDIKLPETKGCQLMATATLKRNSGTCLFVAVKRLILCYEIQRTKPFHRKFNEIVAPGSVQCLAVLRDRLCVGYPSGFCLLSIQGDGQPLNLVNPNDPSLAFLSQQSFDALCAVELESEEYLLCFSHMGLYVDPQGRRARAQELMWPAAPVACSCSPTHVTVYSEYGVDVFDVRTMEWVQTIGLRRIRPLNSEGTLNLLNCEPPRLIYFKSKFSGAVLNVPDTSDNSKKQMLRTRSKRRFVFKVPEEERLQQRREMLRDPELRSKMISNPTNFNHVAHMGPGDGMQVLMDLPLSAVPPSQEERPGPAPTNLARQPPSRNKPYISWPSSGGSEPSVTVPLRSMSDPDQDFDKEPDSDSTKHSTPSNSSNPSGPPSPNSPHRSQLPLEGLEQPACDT
Summary of the method: as §1

[2] = target: T3, PHKg2 (PHKG2, IPI00012891) (Homo sapiens, UniProt P15735)
T3 construct: endogenous in cells; host or cells: HeLa S3
T3 sequence (P15735 1-406): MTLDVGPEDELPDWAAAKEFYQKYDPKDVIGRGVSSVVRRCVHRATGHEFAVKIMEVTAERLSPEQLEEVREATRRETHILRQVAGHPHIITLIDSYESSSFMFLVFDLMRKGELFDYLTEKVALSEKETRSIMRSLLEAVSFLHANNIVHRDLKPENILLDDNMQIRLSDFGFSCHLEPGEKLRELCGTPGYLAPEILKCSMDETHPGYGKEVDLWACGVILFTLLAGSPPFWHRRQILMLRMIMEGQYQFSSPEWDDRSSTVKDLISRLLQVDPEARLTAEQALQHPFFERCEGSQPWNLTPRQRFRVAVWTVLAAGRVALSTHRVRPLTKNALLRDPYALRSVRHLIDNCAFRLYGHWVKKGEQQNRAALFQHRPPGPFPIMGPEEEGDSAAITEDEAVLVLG
Summary of the method: as §1

[3] = target: T4, OSR1 (OXSR1, IPI00010080) (Homo sapiens, UniProt O95747)
T4 construct: endogenous in cells; host or cells: HeLa S3
Summary of the method: as §1

[4] = target: T5, TAO3 (TAOK3, IPI00410485) (Homo sapiens, UniProt Q9H2K8)
T5 construct: endogenous in cells; host or cells: HeLa S3
T5 sequence (Q9H2K8 1-898): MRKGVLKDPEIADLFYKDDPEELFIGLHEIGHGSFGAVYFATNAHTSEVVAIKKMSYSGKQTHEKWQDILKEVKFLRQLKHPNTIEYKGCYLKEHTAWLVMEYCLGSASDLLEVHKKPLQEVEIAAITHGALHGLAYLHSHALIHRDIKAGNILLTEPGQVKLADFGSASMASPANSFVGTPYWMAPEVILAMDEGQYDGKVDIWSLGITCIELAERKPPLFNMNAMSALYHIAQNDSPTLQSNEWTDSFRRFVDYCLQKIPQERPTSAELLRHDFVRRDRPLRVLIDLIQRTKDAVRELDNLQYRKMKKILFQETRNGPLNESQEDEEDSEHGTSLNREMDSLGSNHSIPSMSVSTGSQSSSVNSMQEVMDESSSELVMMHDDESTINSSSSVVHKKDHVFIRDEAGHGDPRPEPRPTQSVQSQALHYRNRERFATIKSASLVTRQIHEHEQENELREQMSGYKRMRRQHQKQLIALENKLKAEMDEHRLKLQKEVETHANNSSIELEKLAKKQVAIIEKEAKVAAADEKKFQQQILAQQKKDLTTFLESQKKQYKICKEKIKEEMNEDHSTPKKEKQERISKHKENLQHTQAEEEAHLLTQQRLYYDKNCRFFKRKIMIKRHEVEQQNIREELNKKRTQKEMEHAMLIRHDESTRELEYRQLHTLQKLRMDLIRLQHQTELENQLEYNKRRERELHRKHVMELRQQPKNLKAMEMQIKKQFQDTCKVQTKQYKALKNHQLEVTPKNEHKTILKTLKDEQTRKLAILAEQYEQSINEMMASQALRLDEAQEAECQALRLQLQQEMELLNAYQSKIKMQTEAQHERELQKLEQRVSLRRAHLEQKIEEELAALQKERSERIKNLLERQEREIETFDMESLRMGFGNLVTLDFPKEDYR
Summary of the method: as §1

[5] = target: p38a (MAPK14, IPI00221141) (Homo sapiens, UniProt Q16539)
p38a (MAPK14, IPI00221141), sequence (Q16539 1-360 isoform Q16539-2): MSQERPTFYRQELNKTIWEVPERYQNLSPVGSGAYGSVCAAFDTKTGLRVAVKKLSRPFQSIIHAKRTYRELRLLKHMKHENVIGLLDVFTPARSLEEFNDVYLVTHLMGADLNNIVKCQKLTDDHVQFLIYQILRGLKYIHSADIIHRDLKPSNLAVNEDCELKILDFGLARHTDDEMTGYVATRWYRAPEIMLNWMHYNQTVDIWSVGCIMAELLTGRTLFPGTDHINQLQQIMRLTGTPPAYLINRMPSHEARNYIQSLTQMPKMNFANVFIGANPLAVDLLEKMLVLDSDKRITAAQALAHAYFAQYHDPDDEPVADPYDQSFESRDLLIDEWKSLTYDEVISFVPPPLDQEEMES
Summary of the method: as §1

SLK (IPI00022827) = target: T6, SLK (IPI00022827) (Homo sapiens, UniProt Q9H2G2)
T6 construct: endogenous in cells; host or cells: HeLa S3
Summary of the method: as §1

PKN2 (IPI00002804) = target: T7, PKN2 (IPI00002804) (Homo sapiens, UniProt Q16513)
T7 construct: endogenous in cells; host or cells: HeLa S3
Summary of the method: as §1

BUB1 (IPI00783305) = target: T8, BUB1 (IPI00783305) (Homo sapiens, UniProt O43683)
T8 construct: endogenous in cells; host or cells: HeLa S3
Summary of the method: as §1

[6] = target: T9, CHED (CDC2L5, IPI00456970) (Homo sapiens, UniProt Q14004)
T9 construct: endogenous in cells; host or cells: HeLa S3 cell lysate
Summary of the method: as §1

[7] = target: T10, NDR1 (STK38, IPI00027251) (Homo sapiens, UniProt Q15208)
T10 construct: endogenous in cells; host or cells: HeLa S3 cell lysate
T10 sequence (Q15208 whole entry): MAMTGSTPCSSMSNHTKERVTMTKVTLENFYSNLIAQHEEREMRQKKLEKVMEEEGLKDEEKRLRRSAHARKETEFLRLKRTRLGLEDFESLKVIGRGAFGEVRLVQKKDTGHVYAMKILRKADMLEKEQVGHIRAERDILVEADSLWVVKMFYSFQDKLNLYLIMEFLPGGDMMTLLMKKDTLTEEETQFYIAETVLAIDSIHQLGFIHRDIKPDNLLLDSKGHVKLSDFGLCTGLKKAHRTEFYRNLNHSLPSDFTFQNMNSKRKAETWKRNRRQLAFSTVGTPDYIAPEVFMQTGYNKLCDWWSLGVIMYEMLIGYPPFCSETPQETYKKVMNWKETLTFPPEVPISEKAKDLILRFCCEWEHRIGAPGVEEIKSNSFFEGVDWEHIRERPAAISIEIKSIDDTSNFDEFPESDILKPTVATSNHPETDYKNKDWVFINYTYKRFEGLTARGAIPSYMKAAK
Summary of the method: as §1

[8] = target: T11, HGK/ZC1 (MAP4K4, IPI00604647) (Homo sapiens, UniProt O95819)
T11 construct: endogenous in cells; host or cells: HeLa S3
T11 sequence (O95819 whole entry): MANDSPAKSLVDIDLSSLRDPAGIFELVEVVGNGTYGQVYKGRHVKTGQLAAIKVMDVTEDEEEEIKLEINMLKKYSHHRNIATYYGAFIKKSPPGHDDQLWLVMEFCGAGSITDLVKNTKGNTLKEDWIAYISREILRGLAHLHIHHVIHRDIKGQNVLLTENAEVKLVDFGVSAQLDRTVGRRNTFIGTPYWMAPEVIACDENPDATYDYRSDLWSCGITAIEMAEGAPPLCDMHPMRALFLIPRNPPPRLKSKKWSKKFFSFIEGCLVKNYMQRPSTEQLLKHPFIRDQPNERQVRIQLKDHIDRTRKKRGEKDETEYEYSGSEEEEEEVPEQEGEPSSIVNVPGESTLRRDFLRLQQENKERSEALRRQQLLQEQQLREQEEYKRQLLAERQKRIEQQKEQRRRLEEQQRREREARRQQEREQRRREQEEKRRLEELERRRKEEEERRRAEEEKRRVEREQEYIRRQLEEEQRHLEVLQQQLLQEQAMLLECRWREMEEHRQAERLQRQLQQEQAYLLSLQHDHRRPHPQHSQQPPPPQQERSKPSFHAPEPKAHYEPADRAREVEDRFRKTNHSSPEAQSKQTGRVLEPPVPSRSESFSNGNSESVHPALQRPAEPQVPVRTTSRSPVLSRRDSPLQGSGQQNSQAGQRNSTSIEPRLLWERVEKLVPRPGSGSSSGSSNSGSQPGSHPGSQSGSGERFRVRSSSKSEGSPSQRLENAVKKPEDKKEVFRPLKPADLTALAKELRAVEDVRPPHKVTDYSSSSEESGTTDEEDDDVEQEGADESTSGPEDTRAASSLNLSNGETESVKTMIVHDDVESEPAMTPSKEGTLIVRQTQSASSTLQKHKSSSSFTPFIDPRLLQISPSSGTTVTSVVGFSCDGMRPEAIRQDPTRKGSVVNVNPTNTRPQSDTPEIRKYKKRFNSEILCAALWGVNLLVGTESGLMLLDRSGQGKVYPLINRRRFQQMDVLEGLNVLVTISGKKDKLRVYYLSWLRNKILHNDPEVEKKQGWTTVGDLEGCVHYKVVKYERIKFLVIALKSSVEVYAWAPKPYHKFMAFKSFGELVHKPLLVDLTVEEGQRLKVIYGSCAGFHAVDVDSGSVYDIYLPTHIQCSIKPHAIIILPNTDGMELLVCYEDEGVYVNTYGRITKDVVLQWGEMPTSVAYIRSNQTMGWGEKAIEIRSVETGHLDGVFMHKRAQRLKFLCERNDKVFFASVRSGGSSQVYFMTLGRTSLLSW
Summary of the method: as §1

[9] = control beads vs first incubation

T1 sequence (O94804 whole entry): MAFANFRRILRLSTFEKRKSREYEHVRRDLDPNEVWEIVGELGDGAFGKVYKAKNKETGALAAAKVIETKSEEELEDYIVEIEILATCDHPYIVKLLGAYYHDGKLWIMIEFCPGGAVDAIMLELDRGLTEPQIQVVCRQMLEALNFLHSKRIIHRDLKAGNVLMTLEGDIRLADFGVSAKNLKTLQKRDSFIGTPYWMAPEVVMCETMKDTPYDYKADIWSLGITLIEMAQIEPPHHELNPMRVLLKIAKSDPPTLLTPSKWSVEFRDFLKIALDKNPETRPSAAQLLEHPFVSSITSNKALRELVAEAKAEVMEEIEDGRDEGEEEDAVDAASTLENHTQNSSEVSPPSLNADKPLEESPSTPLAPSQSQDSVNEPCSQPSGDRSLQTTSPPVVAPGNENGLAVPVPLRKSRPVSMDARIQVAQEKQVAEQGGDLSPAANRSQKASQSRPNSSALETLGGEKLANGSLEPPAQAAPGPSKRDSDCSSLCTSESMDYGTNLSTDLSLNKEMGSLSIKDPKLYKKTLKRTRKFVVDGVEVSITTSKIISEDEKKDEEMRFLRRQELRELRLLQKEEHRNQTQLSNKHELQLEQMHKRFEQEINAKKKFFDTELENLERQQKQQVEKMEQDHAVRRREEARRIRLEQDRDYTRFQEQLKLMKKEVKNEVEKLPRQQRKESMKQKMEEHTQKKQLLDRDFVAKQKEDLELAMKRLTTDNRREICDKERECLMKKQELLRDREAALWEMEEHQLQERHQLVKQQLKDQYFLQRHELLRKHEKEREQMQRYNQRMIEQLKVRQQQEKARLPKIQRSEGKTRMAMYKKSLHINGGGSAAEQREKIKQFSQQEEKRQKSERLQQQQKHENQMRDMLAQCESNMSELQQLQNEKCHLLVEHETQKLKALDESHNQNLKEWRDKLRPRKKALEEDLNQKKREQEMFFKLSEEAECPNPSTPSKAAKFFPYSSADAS

CC(C)n1c(=O)ccc2cnc(Nc3ccc(OCCN)cc3)nc21 [V16742]
rAVERAGE (CTRL/1 INC) (LOK (STK10, IPI00304742); [9]): 0.07 | Ki (LOK (STK10, IPI00304742); immobilized VI16742): 164 µM | rAVERAGE (2 INC/1 INC) (LOK (STK10, IPI00304742); second vs first incubation): 0.76 | r (3 MG/1 MG LYSATE) ([1]; 3 mg vs 1 mg lysate): 2.35 | r (5 h/2.5 h INC. TIME) ([1]; 5 h vs 2.5 h incubation time): 1.34 | rAVERAGE (CTRL/1 INC) [1, 9]: 0.06 | Ki ([1]; immobilized VI16742): 301 µM | rAVERAGE (2 INC/1 INC) ([1]; second vs first incubation): 0.85 | r (3 MG/1 MG LYSATE) ([2]; 3 mg vs 1 mg lysate): 2.14 | r (5 h/2.5 h INC. TIME) ([2]; 5 h vs 2.5 h incubation time): 1.33 | rAVERAGE (CTRL/1 INC) [2, 9]: 0.10 | Ki ([2]; immobilized VI16742): 296 µM | rAVERAGE (2 INC/1 INC) ([2]; second vs first incubation): 0.85 | rAVERAGE (CTRL/1 INC) [3, 9]: 0.05 | Ki ([3]; immobilized VI16742): 207 µM | rAVERAGE (2 INC/1 INC) ([3]; second vs first incubation): 0.80 | r (3 MG/1 MG LYSATE) ([4]; 3 mg vs 1 mg lysate): 2.95 | rAVERAGE (CTRL/1 INC) [4, 9]: 0.09 | Ki ([4]; immobilized VI16742): 116 µM | rAVERAGE (2 INC/1 INC) ([4]; second vs first incubation): 0.69 | r (5 h/2.5 h INC. TIME) ([5]; 5 h vs 2.5 h incubation time): 2.16 | rAVERAGE (CTRL/1 INC) [5, 9]: 0.10 | Ki ([5]; immobilized VI16742): 92.8 µM | rAVERAGE (2 INC/1 INC) ([5]; second vs first incubation): 0.64 | r (3 MG/1 MG LYSATE) (SLK (IPI00022827); 3 mg vs 1 mg lysate): 3.22 | r (5 h/2.5 h INC. TIME) (SLK (IPI00022827); 5 h vs 2.5 h incubation time): 1.87 | rAVERAGE (CTRL/1 INC) (SLK (IPI00022827); [9]): 0.05 | Ki (SLK (IPI00022827); immobilized VI16742): 217 µM | rAVERAGE (2 INC/1 INC) (SLK (IPI00022827); second vs first incubation): 0.81 | r (3 MG/1 MG LYSATE) (PKN2 (IPI00002804); 3 mg vs 1 mg lysate): 2.87 | r (5 h/2.5 h INC. TIME) (PKN2 (IPI00002804); 5 h vs 2.5 h incubation time): 1.35 | rAVERAGE (CTRL/1 INC) (PKN2 (IPI00002804); [9]): 0.03 | Ki (PKN2 (IPI00002804); immobilized VI16742): 115 µM | rAVERAGE (2 INC/1 INC) (PKN2 (IPI00002804); second vs first incubation): 0.69 | rAVERAGE (CTRL/1 INC) (BUB1 (IPI00783305); [9]): 0.05 | Ki (BUB1 (IPI00783305); immobilized VI16742): 161 µM | rAVERAGE (2 INC/1 INC) (BUB1 (IPI00783305); second vs first incubation): 0.76 | r (3 MG/1 MG LYSATE) ([6]; 3 mg vs 1 mg lysate): 5.31 | r (5 h/2.5 h INC. TIME) ([6]; 5 h vs 2.5 h incubation time): 1.42 | rAVERAGE (CTRL/1 INC) [6, 9]: 0.05 | Ki ([6]; immobilized VI16742): 84.6 µM | rAVERAGE (2 INC/1 INC) ([6]; second vs first incubation): 0.62 | rAVERAGE (CTRL/1 INC) [7, 9]: 0.01 | Ki ([7]; immobilized VI16742): 78.3 µM | rAVERAGE (2 INC/1 INC) ([7]; second vs first incubation): 0.60 | rAVERAGE (CTRL/1 INC) [8, 9]: 0.05 | Ki ([8]; immobilized VI16742): 75.7 µM | rAVERAGE (2 INC/1 INC) ([8]; second vs first incubation): 0.59
